# Tests used:
# [1] = test system: Boophilus, Biarra strain; assay: In-vitro test for ovicidal and adulticidal effect on ticks; set-up: species or system Boophilus microplus
# Experimental: In-vitro test for ovicidal and adulticidal effect on ticks
# The ovicidal effect is determined as stated in Example 1.
# In addition, the adulticidal effectiveness of the preparation of the given active compound after 24 hours is determined by ascertaining the voluntary movement of limbs and bodies of the immersed adult ticks after stimulation with a fine needle compared with the voluntary movement of limbs and bodies of the untreated adult ticks. The effectiveness is stated in %, 100% meaning that no movements of any kind of the limbs and bodies were any longer detectable, and 0% signifying that the ticks moved limbs and bodies in normal manner.
# The results below were obtained in a similar manner to those in accordance with Example 4.
# [2] = test system: Boophilus microplus, Biarra strain; assay: In-vivo test against ticks on cattle; set-up: species or system Boophilus microplus (on cattle); conditions: 0.3%; for Total number of female adult ticks which reach development on the cattle: total 1-21 days
# Experimental: In-vivo test against ticks on cattle
# 3 parts of the particular active compound are mixed with 7 parts of a mixture of equal parts by weight of ethyleneglycol monomethyl ether and nonylphenyl polyglycol ether. The emulsion concentrate so obtained is diluted with water to the application concentration desired in each case.
# Cattle which have been infected (12 times at intervals of 2 days) with resistant larvae of ticks of the species Boophilus microplus, Biarra strain, are sprayed on the 24th day after the first infection with the preparation of the given active compound so obtained.
# The effect of the preparation of the given active compound is determined by ascertaining the number of adult female ticks which have reached development on the treated cattle and later lay viable eggs. This number is compared with the number of adult femal ticks which have reached development on untreated cattle.
# As a measure of the intensity of the infestation before treatment, there is used the number of adult females which reach development in the case of the treated and untreated animals in the last three days before the time of treatment.
# [3] = test system: Boophilus microplus, Biarra strain (resistant); assay: In-vitro test for ovicidal effect on ticks (Biarra strain); conditions: Table 1b; for Ovicidal effect: 100% inhibition with the stated concentration of active compound: concentration giving 100% inhibition; for Ovicidal effect: >50% inhibition with the stated concentration of active compound: concentration giving >50% inhibition
# Experimental: In-vitro Test for Ovicidal Effect on Ticks
# The emulsion concentrate so obtained is diluted with water to the application concentration desired in each case.
# After immersion of, in each case, 10 female specimens of the various strains of ticks, the individual ticks are transferred to plastic dishes, the bottom of each of which is covered with a disc of filter paper.
# [4] = Table 4, concentration giving 50% inhibition
# [5] = Table 4, concentration giving 100% inhibition
# [6] = Table 5, concentration giving 50% inhibition
# [7] = Table 5, concentration giving 100% inhibition
# [8] = days before treatment -2 -1 0 (baseline)
Structure (SMILES),"Adulticidal and ovicidal effect: 50% inhibition with the stated concentration of active compound [1, 4]","Adulticidal and ovicidal effect: 100% inhibition with the stated concentration of active compound [1, 5]","Adulticidal and ovicidal effect: 50% inhibition with the stated concentration of active compound [1, 6]","Adulticidal and ovicidal effect: 100% inhibition with the stated concentration of active compound [1, 7]",also measured
C=CCN1CCCC1=Nc1ccc(Br)c(Br)c1,0.05 % by weight,0.1 % by weight,,,
CCCCN1CCCC1=Nc1ccc(F)c(Cl)c1,0.03 % by weight,0.1 % by weight,,,
CCCN1CCCC1=Nc1ccc(F)c(Cl)c1,0.03 % by weight,0.1 % by weight,,,
C=CCN1CCCC1=Nc1ccc(F)c(Cl)c1,0.08 % by weight,0.1 % by weight,,,
CCN1CCCC1=Nc1ccc(F)c(Cl)c1,0.1 % by weight,0.3 % by weight,,,
C=CCN1CCCC1=Nc1ccc(Cl)c(Br)c1,0.05 % by weight,0.1 % by weight,,,
CCCCN1CCCC1=Nc1ccc(Cl)c(Br)c1,0.03 % by weight,0.1 % by weight,,,
CCCN1CCCC1=Nc1ccc(Cl)c(Br)c1,0.1 % by weight,0.3 % by weight,,,
CCN1CCCC1=Nc1ccc(Cl)c(Br)c1,0.05 % by weight,0.1 % by weight,,,
CC=CCN1CCCC1=Nc1ccc(Cl)c(Cl)c1,0.03 % by weight,0.01 % by weight,,,
C=CCN1CCCC1=Nc1ccc(Cl)c(C)c1,0.02 % by weight,0.03 % by weight,,,
C=CCN1CCCC1=Nc1ccc(C)c(Cl)c1,0.01 % by weight,0.03 % by weight,,,
CC=CCN1CCCC1=Nc1cc(Cl)c(Cl)cc1Cl,,,0.03 % by weight,0.1 % by weight,
CC=CCN1CCCC1=Nc1ccc(C)c(Cl)c1,,,0.008 % by weight,0.1 % by weight,
CC=CCN1CCCC1=Nc1ccc(Cl)c(C)c1,,,0.02 % by weight,0.03 % by weight,
CC=CCN1CCCC1=Nc1ccc(Cl)cc1C,,,0.008 % by weight,0.01 % by weight,

Structure (SMILES),"Adulticidal and ovicidal effect: 50% inhibition with the stated concentration of active compound [1, 4]","Adulticidal and ovicidal effect: 100% inhibition with the stated concentration of active compound [1, 5]","Adulticidal and ovicidal effect: 50% inhibition with the stated concentration of active compound [1, 6]","Adulticidal and ovicidal effect: 100% inhibition with the stated concentration of active compound [1, 7]",also measured
C=C(C)CN1CCCC1=Nc1ccc(Cl)c(Cl)c1,,,0.03 % by weight,0.1 % by weight,
C=C(C)CN1CCCC1=Nc1ccc(Cl)cc1Cl,,,0.01 % by weight,0.03 % by weight,
C=C(C)CN1CCCC1=Nc1cc(Cl)c(Cl)cc1Cl,,,0.1 % by weight,0.3 % by weight,
C=C(C)CN1CCCC1=Nc1ccc(Cl)cc1C,,,0.02 % by weight,0.03 % by weight,
C=C(C)CN1CCCC1=Nc1ccc(C)c(Cl)c1,,,0.03 % by weight,0.1 % by weight,
C=C(C)CN1CCCC1=Nc1ccc(Cl)c(C)c1,,,0.01 % by weight,0.1 % by weight,
C=CCCN1CCCC1=Nc1ccc(Cl)c(Cl)c1,,,0.1 % by weight,0.3 % by weight,
C=CCCN1CCCC1=Nc1ccc(C)c(Cl)c1,,,0.02 % by weight,0.03 % by weight,
C=CCCN1CCCC1=Nc1ccc(Cl)cc1C,,,0.008 % by weight,0.01 % by weight,
C=CCN1CCCC1=Nc1ccc(C)c(Br)c1,,,0.03 % by weight,0.1 % by weight,
CCCCN1CCCC1=Nc1ccc(C)c(Br)c1,,,0.02 % by weight,0.03 % by weight,
C=CCN1CCCC1=Nc1ccc(Br)c(C)c1,,,0.03 % by weight,0.1 % by weight,
CCCCN1CCCC1=Nc1ccc(Br)c(C)c1,,,0.05 % by weight,0.1 % by weight,
C=CCN1CCCC1=Nc1ccc(Cl)c(Cl)c1 [Compound 41],,,,,"Number of female adult ticks which reach development on the cattle ([2]; days after treatment +1+2+3): 0; Number of female adult ticks which reach development on the cattle ([2]; days after treatment +4+5+6): 0; Number of female adult ticks which reach development on the cattle ([2]; days after treatment +7+8+9): 7; Number of female adult ticks which reach development on the cattle ([2]; days after treatment +10+11+12): 6; Number of female adult ticks which reach development on the cattle ([2]; days after treatment +13+14+15): 4; Number of female adult ticks which reach development on the cattle ([2]; days after treatment +16+17+18): 0; Number of female adult ticks which reach development on the cattle ([2]; days after treatment +19+20+21): 0; Number of female adult ticks which reach development on the cattle [2, 8]: 262; Total number of female adult ticks which reach development on the cattle [2]: 17; Ovicidal effect: 100% inhibition with the stated concentration of active compound [3]: 0.03 % by weight; Ovicidal effect: >50% inhibition with the stated concentration of active compound [3]: 0.01 % by weight"
CCCCN1CCCC1=Nc1ccc(Cl)c(Cl)c1 [Compound 71],,,,,"Number of female adult ticks which reach development on the cattle ([2]; days after treatment +1+2+3): 3; Number of female adult ticks which reach development on the cattle ([2]; days after treatment +4+5+6): 1; Number of female adult ticks which reach development on the cattle ([2]; days after treatment +7+8+9): 0; Number of female adult ticks which reach development on the cattle ([2]; days after treatment +10+11+12): 11; Number of female adult ticks which reach development on the cattle ([2]; days after treatment +13+14+15): 1; Number of female adult ticks which reach development on the cattle ([2]; days after treatment +16+17+18): 2; Number of female adult ticks which reach development on the cattle ([2]; days after treatment +19+20+21): 0; Number of female adult ticks which reach development on the cattle [2, 8]: 231; Total number of female adult ticks which reach development on the cattle [2]: 18; Ovicidal effect: 100% inhibition with the stated concentration of active compound [3]: 0.03 % by weight; Ovicidal effect: >50% inhibition with the stated concentration of active compound [3]: 0.01 % by weight"
